Assay results published in ChEMBL document CHEMBL1201862, “PubChem BioAssay data set” (2004).
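Results reflect a 48-hour exposure of cells in 96-well plates to compound at five concentrations. GI50 marks 50% less growth.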 The source made the active and inactive calls. No stated cut-off is given here; in the data, active = GI50 up to about 1.1 µM and inactive = higher.

How the values were obtained:
Assay in all cases: DTP human tumour cell line panel, 48 h
[1] = tested on: SW-620
[2] = tested on: IGROV-1
[3] = tested on: SK-MEL-2
[4] = tested on: MOLT-4
[5] = tested on: UACC-257
[6] = tested on: SK-OV-3
[7] = tested on: HL-60
[8] = tested on: HOP-92
[9] = tested on: K562
[10] = tested on: TK-10
[11] = tested on: NCI-H460
[12] = tested on: 786-0
[13] = tested on: COLO 205
[14] = tested on: CCRF-CEM
[15] = tested on: SF-539
[16] = tested on: UACC-62
[17] = tested on: NCI-H522
[18] = tested on: SK-MEL-28

Measured: GI50

Nc1ncnc2c1ncn2C1OC(CSCc2ccc(Cl)cc2)C(O)C1O (configuration not stated)
inactive: [1] 31.8 µM | [2] 89.3 µM | [3] 25.5 µM | [4] 10.7 µM | [5] 31.3 µM | [6] > 100 µM | [7] 23.8 µM | [8] 4.18 µM | [9] 30 µM | [10] 55 µM | [11] > 100 µM | [12] 34.1 µM | [13] 40.4 µM | [14] 31.3 µM | [15] 29.4 µM | [16] 46.9 µM

COC(CC1(OC)OC(=O)C=C1N)OC (configuration not stated)
inactive: [1] > 100 µM | [2] > 100 µM | [3] > 100 µM | [4] > 100 µM | [5] > 100 µM | [6] > 100 µM | [7] > 100 µM | [17] > 100 µM | [8] > 100 µM | [9] > 100 µM | [10] > 100 µM | [11] > 100 µM | [12] > 100 µM | [18] > 100 µM | [13] > 100 µM | [14] > 100 µM | [15] > 100 µM | [16] > 100 µM

CC(=O)Nc1ccc(-c2nnc(SCC(=O)Nc3ccccc3C)o2)cc1
inactive: [1] > 100 µM | [2] 67 µM | [3] > 100 µM | [4] 51.9 µM | [5] > 100 µM | [6] > 100 µM | [7] 57.9 µM | [17] 58.3 µM | [8] 39.4 µM | [9] 82.6 µM | [10] > 100 µM | [11] 96.8 µM | [12] > 100 µM | [18] > 100 µM | [13] > 100 µM | [14] 61.7 µM | [15] > 100 µM | [16] > 100 µM

CCCCCCC(O)C/C=C/CCCCCC/C(C(=O)OC)=C(/O)C(=O)OCC (configuration not stated)
inactive: [1] > 100 µM | [2] > 100 µM | [3] > 100 µM | [4] 72.8 µM | [5] > 100 µM | [6] > 100 µM | [7] 67.1 µM | [17] 85.1 µM | [8] > 100 µM | [9] 97.7 µM | [10] > 100 µM | [11] > 100 µM | [12] > 100 µM | [18] > 100 µM | [13] > 100 µM | [14] > 100 µM | [15] > 100 µM | [16] > 100 µM

Cc1ccc(NC(=O)CCc2n[nH]c(=S)o2)cc1
inactive: [1] > 100 µM | [2] > 100 µM | [4] > 100 µM | [5] > 100 µM | [7] > 100 µM | [17] > 100 µM | [8] > 100 µM | [9] 44.6 µM | [10] > 100 µM | [11] > 100 µM | [12] > 100 µM | [18] > 100 µM | [13] > 100 µM | [14] 62.8 µM | [15] > 100 µM | [16] > 86.3 µM

C=CN1C(=O)[C@H](Oc2ccccc2)[C@@H]1c1ccccc1
inactive: [1] 33.3 µM | [2] > 100 µM | [3] 12.9 µM | [4] 36.6 µM | [5] 41.5 µM | [6] 32.1 µM | [17] 32.6 µM | [9] 36.3 µM | [10] 37.2 µM | [11] 30.3 µM | [12] 18.9 µM | [18] 36.4 µM | [14] 46.8 µM | [15] 16.2 µM

O=C(c1ccccc1)N1C2C3CC(OCc4ccccc4)(OCc4ccccc4)C(O3)C21 (configuration not stated)
inactive: [1] > 100 µM | [2] > 100 µM | [3] > 100 µM | [4] > 100 µM | [6] > 100 µM | [7] > 100 µM | [17] > 100 µM | [8] > 100 µM | [9] 62.2 µM | [10] > 100 µM | [11] > 100 µM | [12] > 100 µM | [18] > 100 µM | [13] > 100 µM | [14] > 100 µM | [15] > 100 µM | [16] > 100 µM

O=C1c2ccccc2C(=O)N1C/C=N/NS(=O)(=O)c1cccc([N+](=O)[O-])c1
inactive: [1] > 100 µM | [2] > 100 µM | [3] > 100 µM | [4] > 100 µM | [5] > 100 µM | [7] > 100 µM | [17] > 100 µM | [9] > 100 µM | [10] > 100 µM | [11] > 100 µM | [12] > 100 µM | [13] > 100 µM | [14] > 100 µM | [15] > 100 µM | [16] > 100 µM
